Consider four compounds from patent US6440980B1, “Synergistic inhibition of viral replication by long-chain hydrocarbons and nucleoside analogs” (Avanir Pharmaceuticals, priority 1996, dated 2002).

The structures appear in SMILES notation. Where two headings read alike, the source gives them in different places.

For series [1] the following is noted: male, hairless, guinea pig, in vivo, 2 day.
For series [2], the system named is HSV-2. The series is described as follows: Inhibition of HSV-2 plaque formation in Vero cells. The note with it: for EC50: Human alphaherpesvirus 2, Vero.
Series [3] has as its system Vero cells. Nature of the series: Cytotoxicity to Vero cells (monolayer integrity, trypan blue exclusion).
Series [4] concerns HSV-2. The series is described as follows: Topical treatment of HSV-2 in guinea pig model, number of vesicles (Example 9). The class given is in vivo, hairless guinea pigs. The conditions noted are these: mean; for Number of Vesicles Day 2: 48 hr post-inoculation; for Number of Vesicles Day 3: 72 hr post-inoculation; for Number of Vesicles Day 4: 96 hr post-inoculation.
For the next series, the system named is EBV. Nature of the series: Systemic treatment of EBV infection, infectious mononucleosis (Example 14). It counts as in vivo, human. The conditions noted are these: 10 mM n-hexacosanol suspension injected. On the procedure: Ten young adults (age 14-19 yr) diagnosed with infectious mononucleosis (sore throat, fever, malaise, generalized lymphadenopathy, atypical mononucleosis T-lymphocytes in peripheral blood, a total white cell count of 12,000-18,000 in the blood) are treated systemically with a sterile aqueous suspension of a nonionic detergent surfactant containing 10 mM n-hexacosanol, prepared essentially as in Example 1. The suspension is injected (intramuscular or intravenous) in dosages of 0.1 mg/kg to 0.02 gm/kg of the aliphatic alcohol administered by a physician under clinical conditions. The symptoms of the individuals are then monitored daily for one week and weekly for three months for indications of infectious mononucleosis. All of the individuals test EBV-positive at the end of the study period as determined by detection of anti-EBV antibodies in their serum using standard immunoassays.

The next series concerns all cell lines tested. Nature of the series: Cytotoxicity in mammalian cell cultures. The conditions noted are these: surfactant suspensions. The text has this: Three assays were used to quantitate the effects of aliphatic alcohols on cell survival and proliferation: 1) counting cells with a hemocytometer and determining the number of cells that exclude trypan blue; 2) measuring the incorporation of ^3H-thymidine into cellular DNA by adding ^3H-thymidine (from New England Nuclear) to the culture medium, lysing the cells with water and harvesting the DNA onto filter paper; and 3) measuring total cellular protein using a sulforhodamine assay adapted for use in 96-well microtiter plates (Skehan et al., J. Natl. Cancer Inst. […] All of these methods are well known cell viability and cytotoxicity assays.

Series [5] concerns HSV-2. The series is described as follows: Transmucosal suppository treatment of HSV-2 infection (Example 13). The note with it: 8 mM brassidyl alcohol suppositories. The class given is in vivo, human. The protocol:
Suppositories containing 8 mM brassidyl alcohol in a nonionic detergent suspension, prepared essentially as in Examples 1 and 5, are formulated by adding anhydrous dextrose (300-400 mg/suppository), vegetable starch (300-400 mg/suppository) and magnesium stearate (5-10 mg/suppository) to produce a mixture that is compressed into suppositories (1-10 g per suppository) for vaginal insertion.
Fifteen HSV-2 infected women with past histories of vaginal and/or perivaginal herpes lesions are provided with the suppositories and instructed to use one to four suppositories per day when herpes lesions or discomfort associated with herpes lesions are detected. The women are instructed to record their observations about the duration of the active infection, the severity of the lesions (erythema, papule, vesicle, edema or scab phases), the relative numbers of lesions detected to past occurrences of active infection, and the subjective degrees of pain or discomfort associated with the active infection episode. The women are instructed to use the suppositories as soon as active infection or symptoms of active infection are detected. The women have a past mean of 12 days duration for lesions that develop into vesicles if untreated.

The subject of series [6] is HSV-1. Nature of the series: Inhibition of HSV-1 plaque formation in Vero cells (brassidyl alcohol, TETRONIC-908 suspension). The conditions noted are these: Human alphaherpesvirus 1, Vero, read-out: Percent Inhibition of Plaque Formation.
The test system of series [7] is Varicella Zoster Virus (VZV). Nature of the series: VZV infectious center assay in MRC-5 cells. The note with it: for EC50: Human alphaherpesvirus 3, MRC5, read-out: ACV Efficacy EC50 (μM), VZV; for EC90: Human alphaherpesvirus 3, MRC5, read-out: ACV Efficacy EC90 (μM), VZV. The class given is cell-based, human varicella zoster virus (Ellen strain).
The test system of another series is vaccinia virus. Nature of the series: microbe, parasite or virus in culture. The class given is cell-based, vaccinia virus (WR strain). The note with it: with or without n-docosanol.
In the next series the test system is Cytomegalovirus (CMV). Nature of the series: CMV infectious center assay in MRC-5 cells. The class given is cell-based, human cytomegalovirus (Towne strain). The conditions noted are these: for EC50: Human betaherpesvirus 5, MRC5, read-out: ACV Efficacy EC50 (μM), CMV; for EC90: Human betaherpesvirus 5, MRC5, read-out: ACV Efficacy EC90 (μM), CMV.
For series [8] the following is noted: cited from earlier work.
The subject of series [9] is Vero cells.
Series [10] concerns HSV-1. The series is described as follows: HSV-1 PFU production in Vero cell cultures. It counts as cell-based, HSV-1 (MacIntyre strain).
Series [11] concerns HSV-2. Nature of the series: Cutaneous HSV-2 model in hairless guinea pigs, combination cream (Example 15). The class given is in vivo. The note with it: 96 hours post-HSV-2-inoculation; cream two times daily; untreated mean 27 vesicles.

Take `CCCCCCCCCCCCCCCCCC(=O)O` [stearic acid]: in series [1], the “Irritation Score Day 2” value came out at 0. Further, the “inhibition of HSV-2 plaque formation relative to infected control cell cultures” value in the series with HSV-2 [2] (11 μM and 22 μM in TETRONIC 908, 3.5 μM in ethanol) was “less than 10%”. Besides, the “cytotoxicity by microscopic examination” value in the series with Vero cells [3] (11 μM and 22 μM suspensions in TETRONIC 908 and 3.5 μM solution in ethanol) was “No apparent toxicity”; in the series with Vero cells [3] (44 μM TETRONIC 908 suspension and 35 μM ethanol solution), “Moderate toxicity”; in the series on Vero cells [3] (suspensions and solutions of 88 μM to 350 μM) it was “toxic”. The “Number of Vesicles Day 2” value in the series on HSV-2 [4] (10% w/w cream topically 3X/day from 24 hr post-inoculation) and with HSV-2 [4] (10% w/w cream topically 5X/day) was 49 each time. In addition, the “Number of Vesicles Day 3” value was 17 with HSV-2 [4] (10% w/w cream topically 3X/day) and 13 in the series with HSV-2 [4] (10% w/w cream topically 5X/day). Besides, the “Number of Vesicles Day 4” value with HSV-2 [4] (10% w/w cream topically 3X/day) was found to be 11; in the series with HSV-2 [4] (10% w/w cream topically 5X/day) it was 5.

For `CCCCCCCCCCCCCCCCCCCCCCCCCCO` [n-hexacosanol], in the series with HSV-2 [2] (read-out: 50% Inhibition Concentration (mM)), the EC50 turned out to be 8.4 mM. Moreover, the “time to decrease in atypical mononucleosis T-lymphocytes in peripheral blood” value in the series on EBV is given as “four”. The “cytotoxicity of the suspensions (in words)” value in the series with all cell lines tested was “same minimal level of cytotoxicity”.

Take `CCCCCCCC/C=C/CCCCCCCCCCCCO` [brassidyl alcohol, trans-13-docosen-1-ol]: in the series with HSV-2 [5], the “mean duration of the HSV-2 active infection, five women” value lay within 3 to 4 days. Also, in the series with HSV-1 [6], the inhibition at 1000 µM came to 27%, the inhibition at 2000 µM came to 35%, the inhibition at 4000 µM worked out at 44% and the inhibition at 8000 µM is 48%.

For `Nc1nc2c(ncn2COCCO)c(=O)[nH]1` [ACV, 9-(2-hydroxy)-ethoxymethyl-guanine], the EC50 is 3 µM in series [7] (Medium Only); 3 µM in series [7] (with Pluronic F-68); 1 µM in [7] (with n-Docosanol, 3.3 mM); 0.6 µM in series [7] (with n-Docosanol, 10 mM); 0.3 µM in series [7] (with n-Docosanol, 30 mM); 0.005 mM with HSV-2 [2] (44 h, read-out: ACV 50% effective concentration (EC50), plaque formation, medium alone, 50 PFU HSV-2, scored 44 hours). In addition, the EC50 with HSV-2 [2] (read-out: ACV EC50, plaque formation) was determined as 0.0002 mM; in the series with Cytomegalovirus (CMV) (Medium Only), 30 µM; with Cytomegalovirus (CMV) (with Pluronic F-68), 30 µM; in the series with Cytomegalovirus (CMV) (with n-Docosanol, 3.3 mM) it was 8 µM; in the series on Cytomegalovirus (CMV) (with n-Docosanol, 10 mM) it was 2 µM; in the series with Cytomegalovirus (CMV) (with n-Docosanol, 30 mM), 2 µM. Also, the EC90 in series [7] (Medium Only) was found to be 10 µM; in series [7] (with Pluronic F-68), 10 µM; in series [7] (with n-Docosanol, 3.3 mM), 6 µM; in [7] (with n-Docosanol, 10 mM) it was 4 µM; in [7] (with n-Docosanol, 30 mM) it was 2 µM; in the series on Cytomegalovirus (CMV) (Medium Only) it was 250 µM. Further, the EC90 was 250 µM in the series on Cytomegalovirus (CMV) (with Pluronic F-68); 35 µM in the series on Cytomegalovirus (CMV) (with n-Docosanol, 3.3 mM); 25 µM with Cytomegalovirus (CMV) (with n-Docosanol, 10 mM); 6 µM in the series on Cytomegalovirus (CMV) (with n-Docosanol, 30 mM); 0.9 µM in the series with HSV-1 [10] (15 mM n-docosanol, 500 PFU/culture, three days, read-out: EC90 for inhibition of HSV-1 PFU production in the presence of n-docosanol); 19 µM in the series on HSV-1 [10] (Human alphaherpesvirus 1, Vero, 72 h, control cultures without n-docosanol, 500 PFU/culture, three days, read-out: EC90 for inhibition of HSV-1 PFU production, drug used alone). Further, the EC90 in the series on HSV-1 [10] (Human alphaherpesvirus 1, Vero, read-out: ACV EC90 for inhibition of HSV-1 production, 30 mM n-docosanol) was under 0.1 µM; with HSV-1 [10] (Human alphaherpesvirus 1, Vero, read-out: ACV EC90 for inhibition of HSV-1 production, medium only or medium plus PLURONIC F-68, 500 PFU per culture, 72 hours) it was 10 µM. The “sensitivity of vaccinia virus to ACV (in words)” value with vaccinia virus is “insensitive”. Besides, in the series on HSV-2 [2] (3 mM n-docosanol), the “enhancement of ACV activity” value turned out to be 25 fold. The “reduction of ACV EC50's and EC90's” value with Cytomegalovirus (CMV) (CMV, n-docosanol concentrations of 10-30 mM) stood at 90%. In addition, in series [8] (acyclovir 5 mg/kg by 1-hour infusions every 8 hours), the “steady state acyclovir plasma concentration” value is “approximately 10 μg/ml”. Besides, the “maximum average acyclovir plasma concentration” value in series [8] (oral acyclovir 500 mg 5 times a day) is reported as “approximately 0.7 μg/ml”. Besides, the “cellular toxicity, such as cytoplasmic vacuoles” value in the series on Vero cells [9] was “not observed”. The “lowering of the ACV EC90” value in the series on HSV-1 [10] (3.3 mM n-docosanol) worked out at 17 fold. Also, the “reduction of the ACV EC90” value with HSV-1 [10] (10 mM n-docosanol) stood at 40 fold. Also, the “reduction of EC90 by n-docosanol” value in the series on HSV-1 [10] (15 mM n-docosanol) was determined as 21 fold. The “reduction of mean vesicle numbers” value in the series with HSV-2 [11] came out at 50%.

What is called inhibition is the relative decrease from the control value, in per cent. In general, EC90 refers to the concentration at which the effect reaches the 90% level.
